{"source": "patent US20240277705A1", "about": "“DOSAGE REGIMENS FOR ECUBECTEDIN” (PHARMA MAR S.A., priority 2021, published 2024)", "key": {"[1]": {"test_system": "MEXF 1341L (melanoma)", "assay": "Propidium iodide monolayer cell proliferation assay, MEXF 1341L", "assay_type": "cell-based, human", "conditions": "MEXL 1341L", "experimental": "(§1) Cell proliferation assay: A modified propidium iodide (PI) based monolayer assay was used to assess the anti-cancer activity of the compounds (Dengler WA, Schulte J, Berger DP, Mertelsmann R, Fiebig HH, Anti-Cancer Drugs 1995, 6: 522-532). Briefly, cells were harvested from exponential phase cultures, counted and plated in 96 well flat-bottom microtiter plates at a cell density of 4,000 to 30,000 cells/well dependent on the cell line's growth rate. After a 24 h recovery period, to allow the cells to resume exponential growth, 10 μl of culture medium (4 control wells/cell line/plate) or of culture medium with test compounds were added. PM14 was applied at ten concentrations in half-log increments in duplicates up to 3.16 pM and treatment continued for four days. […] After an incubation period of 1-2 hours at room temperature, fluorescence (FU) was measured using the Enspire Multimode Plate Reader (excitation A=530 nm, emission A=620 nm) to quantify the amount of attached viable cells.\nIC50 and IC70 values were calculated by 4 parameter non-linear curve fit using Oncotest Warehouse Software. […]\nIC50 values were determined as described in Example 2, but using the following human cancer cell lines: • MEXF 276L (melanoma) • MEXF 462NL (melanoma) • MEXF 1341L (melanoma)"}, "[2]": {"test_system": "MRI-H-121 xenografts (human renal carcinoma tumor line)", "assay": "MRI-H-121 mouse xenograft study, antitumor activity", "assay_type": "in vivo, mice", "conditions": "1.25 mg/kg i.v. days 0, 7 and 14", "experimental": "Compounds: Vials of off-white lyophilized PM14 cake were stored at −20° C. The cake was reconstituted with 2 ml of water for injection (Sigma-Aldrich, Co) to a concentration of 0.5 mg/ml. Further dilutions were made with a 5% glucose solution for injection/USP (Baxter, Inc.). A clear PM14 solution was obtained.\nAnimals: Female athymic nu/nu mice between 4 to 6 weeks of age were purchased from Envigo (Barcelona, Spain).\nTumor line: MRI-H-121 is a human renal carcinoma tumor line, originally obtained from the DCT Tumor Bank. Developed by Dr. A. E. Bogden, Mason Research Institute MA and maintained as a serial transplanted tumor line in athymic nude mice. Original tissue came from a patient at U. of Mass. Med. Center.\nStudy groups: Briefly, 4 to 6 week-old female athymic nu/nu mice were subcutaneously implanted into their right flank with a MRI-H-121 tissue from serial transplanted donor mice. Tumors were removed from donor animals and were cut into fragments (3 mm^3). Tissue was debrided of membrane, hemorrhagic and necrotic areas, placed in Matrigel™ (Corning Incorporated Life Sciences) and subcutaneously implanted. Recipient mice were anesthetised by inhalation of isoflurane, a small incision into the skin of the back was made and one tumor fragment per mouse was transplanted with tweezers. The mice were monitored daily.\n(§2) Tumor bearing animals were randomly allocated into 2 groups (N=10/group): PM14 administered at 1.25 mg/kg and placebo. All treatments were intravenously administered once a week for 3 consecutive weeks (days 0, 7 and 14).\nTumor measurements were determined using digital calipers (Fowler Sylvac, S235PAT). The formula to calculate volume for a prolate ellipsoid was used to estimate tumor volume (mm^3) from 2-dimensional tumor measurements:\nWhere, a: length (longest diameter) and b: width (shortest diameter) in mm of a tumor.\n(§3) Tumor volume and animal body weights were measured 2-3 times per week starting from the first day of treatment.\nWhen tumors reached ca. 190 mm^3, tumor bearing animals were randomly allocated into the following experimental groups (N=10/group):\nTreatments were initiated on Day 0 and were intravenously administered once per week for 3 consecutive weeks (days 0, 7 and 14).\nTumor volume data from groups following the 1st, 2nd, 3rd, 4th and 5th weeks were compared using a two tailed Mann Whitney U test. The data are presented as medians and interquartile range (IQR).\nComplete tumor regression (CR) was defined when tumor volume <63 mm^3 for 2 or more consecutive measurements. Survival statistical differences between groups were assessed by Kaplan Meier curves applying the log rank test."}, "[3]": {"test_system": "RXF 1781L (hypernephroma, poorly differentiated)", "assay": "Propidium iodide monolayer cell proliferation assay, RXF 1781L", "assay_type": "cell-based, human", "conditions": "four days of treatment", "experimental": "(§4) Working stock solution of PM14 was prepared in DMSO at a concentration of 1.042 mM and small aliquots were stored at −20° C. On each day of an experiment, a frozen aliquot of the working stock solution was thawed and stored at room temperature prior to and during treatment.\n(§5) Subsequent dilutions were done with complete RPMI 1640 cell culture medium. DMSO stock solutions were first diluted 1:22 (corresponding to 4.5% v/v DMSO). Starting with this solution, serial dilutions in half-log steps with cell culture medium were done using an intermediate dilution plate. Finally, 10 μl taken from the intermediate dilution plate were transferred to 140 μl/well of the cell culture plate. […]\nas §1, with “rate.” for “rate. After a 24 h recovery period, to allow the cells to resume exponential growth, 10 μl of culture medium (4 control wells/cell line/plate) or of culture medium with test compounds were added. PM14 was applied at ten concentrations in half-log increments in duplicates up to 3.16 pM and treatment continued for four days.”, “cells. […]” for “cells.”"}, "[4]": {"test_system": "RXF 486L (hypernephroma, poorly differentiated)", "assay": "Propidium iodide monolayer cell proliferation assay, RXF 486L", "assay_type": "cell-based, human", "conditions": "four days of treatment", "experimental": "as §4, §5\nas §1, with “rate.” for “rate. After a 24 h recovery period, to allow the cells to resume exponential growth, 10 μl of culture medium (4 control wells/cell line/plate) or of culture medium with test compounds were added. PM14 was applied at ten concentrations in half-log increments in duplicates up to 3.16 pM and treatment continued for four days.”, “cells. […]” for “cells.”"}, "[5]": {"assay": "MRI-H-121 mouse xenograft study, tolerability", "assay_type": "in vivo, mice", "experimental": "as §2, §3\nTreatment tolerability was assessed by monitoring body weight evolution, clinical signs of systemic toxicity, as well as evidences of local damage in the injection site.\nTreatments producing >20% lethality and/or 20% net body weight loss were considered toxic. Animals were euthanized when their tumors reached ca. 2,000 mm^3 and/or severe necrosis was seen."}, "[6]": {"conditions": "Homo sapiens, 96 h, read-out: IC50, μM (geometric mean)"}}, "data": [{"smiles": "COc1c(C)cc2c(c1O)[C@@H]1[C@@H]3[C@@H]4SC[C@]5(N[C@H](CO)Cc6c5[nH]c5ccccc65)C(=O)OC[C@@H](c5c6c(c(C)c(OC(C)=O)c54)OCO6)N3[C@@H](O)[C@H](C2)N1C", "note": "[PM14, ECUBECTEDIN]", "values": [{"measurement": "IC50", "setting": "[1]; Homo sapiens, MEXF 1341L, read-out: IC50, μM (geometric mean)", "value": 0.0004, "unit": "µM"}, {"measurement": "IC70, μM (geometric mean)", "setting": "[1]", "value": 0.0006, "unit": "µM"}, {"measurement": "Median survival time", "setting": "[2]", "value": 32.5, "unit": "days"}, {"measurement": "antitumor activity", "setting": "[2]", "value": "very strong antitumor activity"}, {"measurement": "TV, mm^3 median", "setting": "[2]; Day 0", "value": 190.8, "unit": "mm^3"}, {"measurement": "TV, mm^3 median", "setting": "[2]; Day 7, 1.25 mg/kg", "value": 401.2, "unit": "mm^3"}, {"measurement": "TV, mm^3 median", "setting": "[2]; Day 14, 1.25 mg/kg", "value": 472.7, "unit": "mm^3"}, {"measurement": "TV, mm^3 median", "setting": "[2]; Day 21, 1.25 mg/kg", "value": 743.8, "unit": "mm^3"}, {"measurement": "TV, mm^3 median", "setting": "[2]; Day 28, 1.25 mg/kg", "value": 1392, "unit": "mm^3"}, {"measurement": "TV, mm^3 median", "setting": "[2]; Day 35, 1.25 mg/kg", "value": 2015, "unit": "mm^3"}, {"measurement": "IC50", "setting": "[3]; [6]", "value": 0.004, "unit": "µM"}, {"measurement": "IC70, μM (geometric mean)", "setting": "[3]", "value": 0.005, "unit": "µM"}, {"measurement": "IC50", "setting": "[4]; [6]", "value": 0.002, "unit": "µM"}, {"measurement": "IC70, μM (geometric mean)", "setting": "[4]", "value": 0.002, "unit": "µM"}, {"measurement": "mortality", "setting": "[5]; 1.25 mg/kg i.v. days 0, 7 and 14", "value": "No mortality"}, {"measurement": "mean body weight reduction", "setting": "[5]; Day 16, 1.25 mg/kg i.v. days 0, 7 and 14, reversible", "value": "ca. −15.0%"}, {"measurement": "tolerability", "setting": "[5]; MRI-H-121 tumor bearing animals, 1.25 mg/kg", "value": "well tolerated"}]}]}
